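Cells were grown in 96-well plates and exposed to each compound for 48 hours at five concentrations; endpoints were interpolated linearly between bracketing concentrations, or set to the highest concentration if not reached. Definition used: TGI = concentration required for complete inhibition of growth.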
Legend:
Experiment in all cases: NCI anticancer screen, dose series, 48 h
[1] = tested on: A549 NSCLC
[2] = tested on: SF-539 CNS
[3] = tested on: OVCAR-4 ovarian
[4] = tested on: KM20L2 colon
[5] = tested on: NCI-H23 lung
[6] = tested on: HCT-116 colon
[7] = tested on: CAKI-1 renal
[8] = tested on: EKVX NSCLC
[9] = tested on: COLO 205 colon
[10] = tested on: UACC-257 melanoma
[11] = tested on: SN12C renal
[12] = tested on: KM12 colon
[13] = tested on: LXFL 529 NSCLC
[14] = tested on: DMS 114 small cell lung
[15] = tested on: MOLT-4 leukemia
[16] = tested on: HCT-15 colon
[17] = tested on: M19-MEL melanoma
[18] = tested on: UACC-62 melanoma
[19] = tested on: RPMI-8226 leukemia
[20] = tested on: SF-295 CNS
[21] = tested on: HT29 colon
[22] = tested on: SK-MEL-2 melanoma
[23] = tested on: SW-620 colon
[24] = tested on: SNB-19 CNS
[25] = tested on: K-562 leukemia
[26] = tested on: DLD-1 colon
[27] = tested on: UO-31 renal
[28] = tested on: IGROV1 ovarian
[29] = tested on: SK-OV-3 ovarian
[30] = tested on: OVCAR-8 ovarian
[31] = tested on: ACHN renal
[32] = tested on: A498 renal
[33] = tested on: XF 498 CNS
[34] = tested on: HOP-62 NSCLC
[35] = tested on: HCC-2998 colon
[36] = tested on: SK-MEL-28 melanoma
[37] = tested on: DMS 273 small cell lung
[38] = tested on: U251 CNS
[39] = tested on: HL-60(TB) leukemia
[40] = tested on: 786-0 renal
[41] = tested on: NCI-H460 lung
[42] = tested on: SR leukemia
[43] = tested on: RXF 393 renal
[44] = tested on: OVCAR-3 ovarian
[45] = tested on: RXF-631 renal
[46] = tested on: SNB-78 CNS
[47] = tested on: SNB-75 CNS
[48] = tested on: CCRF-CEM leukemia
[49] = tested on: LOX IMVI melanoma
[50] = tested on: M14 melanoma
[51] = tested on: MALME-3M melanoma
[52] = tested on: SK-MEL-5 melanoma
[53] = tested on: OVCAR-5 ovarian
[54] = tested on: HOP-92 NSCLC
[55] = tested on: HOP-18 NSCLC
[56] = tested on: TK-10 renal
[57] = tested on: SF-268 CNS
[58] = tested on: NCI-H522 lung

COc1ccc(-c2cc(=O)c3cc(C)c(C)c(C(=O)O)c3o2)cc1
TGI [1]: > 100 µM
TGI [2]: > 100 µM
TGI [3]: > 100 µM
TGI [4]: > 100 µM
TGI [5]: > 100 µM
TGI [6]: > 100 µM
TGI [7]: > 100 µM
TGI [8]: > 100 µM
TGI [9]: > 100 µM
TGI [10]: > 100 µM
TGI [11]: > 100 µM
TGI [12]: > 100 µM
TGI [13]: > 100 µM
TGI [14]: 45.6 µM
TGI [15]: > 100 µM
TGI [16]: > 100 µM
TGI [17]: > 100 µM
TGI [18]: 30.7 µM
TGI [19]: > 100 µM
TGI [20]: > 100 µM
TGI [21]: > 100 µM
TGI [22]: > 100 µM
TGI [23]: > 100 µM
TGI [24]: > 100 µM
TGI [25]: > 100 µM
TGI [26]: > 100 µM
TGI [27]: > 100 µM
TGI [28]: > 100 µM
TGI [29]: > 100 µM
TGI [30]: > 100 µM
TGI [31]: 94.4 µM
TGI [32]: > 100 µM
TGI [33]: > 100 µM
TGI [34]: > 100 µM
TGI [35]: > 100 µM
TGI [36]: > 100 µM
TGI [37]: > 100 µM
TGI [38]: > 100 µM
TGI [39]: > 100 µM
TGI [40]: > 100 µM
TGI [41]: > 100 µM
TGI [42]: > 100 µM
TGI [43]: > 100 µM
TGI [44]: > 100 µM
TGI [45]: > 100 µM
TGI [46]: > 100 µM
TGI [47]: > 100 µM
TGI [48]: > 100 µM

O=[N+]([O-])c1cc(I)cc(/C=N/NS(=O)(=O)c2ccc(Cl)cc2)c1O
TGI [1]: > 100 µM
TGI [2]: 51.5 µM
TGI [49]: 36.5 µM
TGI [3]: 85.6 µM
TGI [4]: > 100 µM
TGI [5]: 34.2 µM
TGI [50]: 58.3 µM
TGI [6]: 41.3 µM
TGI [51]: 48.9 µM
TGI [7]: 54.9 µM
TGI [8]: 83 µM
TGI [9]: 33.1 µM
TGI [10]: 53.9 µM
TGI [11]: 49.4 µM
TGI [12]: 34.6 µM
TGI [13]: 37.2 µM
TGI [15]: 51.5 µM
TGI [16]: 38.7 µM
TGI [17]: 56.9 µM
TGI [18]: 57.6 µM
TGI [19]: 59.7 µM
TGI [20]: 60.6 µM
TGI [21]: 48.6 µM
TGI [22]: 42.7 µM
TGI [23]: 82.4 µM
TGI [24]: > 100 µM
TGI [25]: 57.1 µM
TGI [26]: 59.4 µM
TGI [52]: 36.9 µM
TGI [53]: 71.6 µM
TGI [27]: 36.8 µM
TGI [28]: 45.1 µM
TGI [54]: 37.6 µM
TGI [29]: 65 µM
TGI [30]: 37.6 µM
TGI [55]: 45.5 µM
TGI [31]: 51.4 µM
TGI [32]: 58.8 µM
TGI [56]: 74.4 µM
TGI [34]: 53.6 µM
TGI [35]: 46.3 µM
TGI [36]: 73.8 µM
TGI [37]: 38.5 µM
TGI [38]: 40.3 µM
TGI [57]: 77.4 µM
TGI [39]: 55.8 µM
TGI [40]: 42.9 µM
TGI [41]: 37.4 µM
TGI [42]: 46.2 µM
TGI [58]: 33.2 µM
TGI [43]: 45.4 µM
TGI [44]: 36.1 µM
TGI [45]: 45.3 µM
TGI [46]: 70.9 µM
TGI [47]: 61.2 µM
TGI [48]: 58.5 µM
